Assay results taken from PubChem BioAssay AID515 (SGCOxCompounds, 2006).

What follows are molecules tested against Mitogen-activated protein kinase kinase kinase 5 (Homo sapiens) (UniProt Q99683) (assay: ligand-induced stabilization of human MAP3K5 kinase – biophysical, DSF, SYPRO orange, recombinant protein (AID 515)). Conditions: recombinant MAP3K5, DSF thermal shift, at 10 µM, buffer 10 mM HEPES, pH 7.5, NaCl 150 mM, stronger effect = higher value.
Chain of Mitogen-activated protein kinase kinase kinase 5 (Homo sapiens) (Q99683 whole entry, looked up): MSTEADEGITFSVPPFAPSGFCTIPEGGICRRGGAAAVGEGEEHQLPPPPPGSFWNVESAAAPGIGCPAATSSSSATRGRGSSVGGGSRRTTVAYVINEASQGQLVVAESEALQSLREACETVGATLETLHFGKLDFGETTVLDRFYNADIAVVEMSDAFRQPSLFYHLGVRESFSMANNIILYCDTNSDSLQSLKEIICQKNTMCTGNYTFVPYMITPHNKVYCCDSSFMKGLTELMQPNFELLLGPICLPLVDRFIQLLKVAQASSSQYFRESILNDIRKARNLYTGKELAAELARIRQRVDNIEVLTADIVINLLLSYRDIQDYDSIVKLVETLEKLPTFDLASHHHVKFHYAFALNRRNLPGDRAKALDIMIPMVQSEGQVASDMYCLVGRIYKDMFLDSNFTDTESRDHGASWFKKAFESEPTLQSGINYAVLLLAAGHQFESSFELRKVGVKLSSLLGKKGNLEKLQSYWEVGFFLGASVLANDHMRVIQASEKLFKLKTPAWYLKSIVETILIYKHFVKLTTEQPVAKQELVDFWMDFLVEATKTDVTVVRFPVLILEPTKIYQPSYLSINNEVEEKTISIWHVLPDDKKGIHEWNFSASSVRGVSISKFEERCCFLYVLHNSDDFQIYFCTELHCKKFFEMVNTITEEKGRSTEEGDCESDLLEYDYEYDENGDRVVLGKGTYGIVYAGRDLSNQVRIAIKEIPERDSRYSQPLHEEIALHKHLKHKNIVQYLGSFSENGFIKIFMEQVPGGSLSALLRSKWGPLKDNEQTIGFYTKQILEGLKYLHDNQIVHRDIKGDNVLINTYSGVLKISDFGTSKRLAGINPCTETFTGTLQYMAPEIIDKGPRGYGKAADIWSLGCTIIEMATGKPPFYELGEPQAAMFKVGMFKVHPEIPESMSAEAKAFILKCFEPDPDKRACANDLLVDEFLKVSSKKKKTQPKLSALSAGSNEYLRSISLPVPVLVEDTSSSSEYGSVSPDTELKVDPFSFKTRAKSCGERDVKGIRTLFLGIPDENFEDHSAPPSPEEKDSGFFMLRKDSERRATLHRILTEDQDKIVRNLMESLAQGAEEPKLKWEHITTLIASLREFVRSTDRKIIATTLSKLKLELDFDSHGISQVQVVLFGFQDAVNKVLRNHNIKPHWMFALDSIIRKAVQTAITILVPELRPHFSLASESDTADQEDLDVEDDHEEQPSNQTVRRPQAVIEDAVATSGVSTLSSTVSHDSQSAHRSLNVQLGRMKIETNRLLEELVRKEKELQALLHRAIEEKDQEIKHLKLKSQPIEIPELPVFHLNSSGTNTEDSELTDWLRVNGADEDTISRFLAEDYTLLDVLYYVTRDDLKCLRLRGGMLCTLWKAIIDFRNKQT

Structure (SMILES) | Tm shift [Celsius]
Cc1ccc2c(c1)=C(c1[nH]c(=S)[nH]c1O)C(=O)N=2 | 4.5
COc1cccc(N=Cc2c(O)[nH]c3ccccc23)c1 | 3.2
N#Cc1ccc(-c2cnc3ccc(NC4CCOCC4)nn23)cc1 | 3.5
NC1=N/C(=C2/CCNC(=O)c3[nH]c(Br)cc32)C(=O)N1 | 8.7
Nc1nc(Nc2ccc(S(N)(=O)=O)cc2)nn1C(=S)Nc1c(F)cccc1F | 16.9
O=c1[nH]cnc2scc(-c3cccs3)c12 | 3.7
O=Nc1c(-c2c(O)[nH]c3ccccc23)[nH]c2ccccc12 | 6.1
O=Nc1c(-c2c(O)[nH]c3ccc(S(O)(O)O)cc23)[nH]c2ccccc12 | 4.04
O=C1Nc2ccccc2/C1=C\c1cnc[nH]1 | 4.76
CC1N=C2SC=CN2C(=O)C1CCN1CCC(=C(c2ccccc2)c2ccc(F)cc2)CC1 (stereo not drawn) | 4.8
O=c1c(O)c(-c2ccc(O)c(O)c2)oc2cc(O)cc(O)c12 | 3.7
Cn1cc(/C=C2\C(=O)Nc3ccc(S(N)(=O)=O)cc32)c2ccccc21 | 10
OCC(O)CCO/N=C1/C(c2c(O)[nH]c3ccccc23)=Nc2ccccc21 (stereo not drawn) | 5.6
O=C(c1ccc(Nc2nccc(-c3cc4ccccc4s3)n2)cc1)N1CCC(N2CCCC2)CC1 | 5.1
O=C(Nc1ccc(N2CCOCC2)cc1)Nc1ccc(Cl)c(Cl)c1 | 5.7
O=Nc1c(-c2c(O)[nH]c3ccc(I)cc23)[nH]c2ccccc12 | 5.72
Cc1c2ccncc2c(C)c2c1[nH]c1ccccc12 | 6.3
CCOc1c(Br)ccc2c1sc1nc[nH]c(=O)c12 | 3.9

Same assay, conditions: recombinant MAP3K5, DSF thermal shift, at 10 µM, buffer 10 mM HEPES, pH 7.5, NaCl 150 mM, with 50 µM L-Arg/L-Glu (1:1), stronger effect = higher value

Structure (SMILES) | Tm shift [Celsius]
CCN(CC)CCNC(=O)c1c(C)[nH]c(/C=C2\C(=O)Nc3ccc(Cl)cc32)c1C | 6.43
O=C1NCc2c1c1c3ccccc3[nH]c1c1[nH]c3ccccc3c21 | 8.53
O=C1Nc2ccccc2/C1=C/c1ccc[nH]1 | 5.01
NC1=N/C(=C2/CCNC(=O)c3[nH]c(Br)cc32)C(=O)N1 | 12.5
O=C1c2ccccc2-c2n[nH]c3cccc1c23 | 8.63
NC(=O)Nc1sc(-c2ccccc2)cc1C(N)=O | 5.94
CC1N=C2SC=CN2C(=O)C1CCN1CCC(=C(c2ccccc2)c2ccc(F)cc2)CC1 (stereo not drawn) | 6.07
O=Nc1c(-c2c(O)[nH]c3cc(Br)ccc23)[nH]c2ccccc12 | 8.7
Cc1cc(C=C2C(=O)C=CC2=O)cc(C)c1O | 3.1
COc1ccc2c(c1)/C(=C/c1cnc[nH]1)C(=O)N2 | 5.19
O=c1c(O)c(-c2ccc(O)c(O)c2)oc2cc(O)ccc12 | 3.96
CC(O)(O)C1(O)C[C@@H]2O[C@@]1(C)n1c3ccccc3c3c4c(c5c6ccccc6n2c5c31)C(=O)NC4 (stereo partly drawn) | 14.1
NC1=N/C(=C2\CCNC(=O)c3[nH]ccc32)C(=O)N1 | 4.65
O=C1NC(=O)c2c1c1c3ccccc3n3c1c1c2c2ccccc2n1[C@@H]1CCC3O1 | 6.97
CC(C)(C)c1nc2c3cc[nH]c(=O)c3c3cc(F)ccc3c2[nH]1 | 8.26
